Where a SMILES comes first, the peptide text is derived from it. The star is where a group is joined. FITC = O=C1OC2(c3ccc(O)cc3Oc3cc(O)ccc32)c2ccc(NC(=S)*)cc21
What was measured:
ABL1 SH3 = ABL1 SH3 (Homo sapiens, UniProt P00519); experiment: FP saturation binding, ABL1 SH3; conditions: domain titrated to 10 nM FITC-peptide, 50 mM sodium phosphate pH 7.4, 0.05% Tween, quadratic fit, technical triplets, read-out: KD [µM] + SE
USP7 MATH/TRAF [1] = target: T1, USP7 MATH/TRAF (Homo sapiens, UniProt Q93009); experiment: FP saturation binding, USP7 MATH/TRAF; conditions: domain titrated to 10 nM FITC-peptide, 50 mM sodium phosphate pH 7.4, 0.05% Tween, quadratic fit, technical triplets, read-out: KD [µM] + SE
T1 sequence (Q93009 53-206): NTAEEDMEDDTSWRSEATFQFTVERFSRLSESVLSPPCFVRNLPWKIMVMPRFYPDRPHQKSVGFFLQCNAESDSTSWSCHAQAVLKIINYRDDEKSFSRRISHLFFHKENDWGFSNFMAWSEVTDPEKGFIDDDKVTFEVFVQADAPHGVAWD

GABARAPL1 ATG8 [2] = target: T2, GABARAPL1 ATG8 (Homo sapiens, UniProt Q9H0R8); experiment: FP saturation binding, GABARAPL1 ATG8; conditions: domain titrated to 10 nM FITC-peptide, 50 mM sodium phosphate pH 7.4, 0.05% Tween, quadratic fit, technical triplets, read-out: KD [µM] + SE
T2 sequence (Q9H0R8 2-115): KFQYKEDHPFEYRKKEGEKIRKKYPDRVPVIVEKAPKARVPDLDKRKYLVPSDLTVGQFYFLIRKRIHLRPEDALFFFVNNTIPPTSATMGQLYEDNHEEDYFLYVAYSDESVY

GGA1 VHS [3] = target: T3, GGA1 VHS (Homo sapiens, UniProt Q9UJY5); experiment: FP saturation binding, GGA1 VHS; conditions: domain titrated to 10 nM FITC-peptide, 50 mM sodium phosphate pH 7.4, 0.05% Tween, quadratic fit, technical triplets, read-out: KD [µM] + SE
T3 sequence (Q9UJY5 1-157): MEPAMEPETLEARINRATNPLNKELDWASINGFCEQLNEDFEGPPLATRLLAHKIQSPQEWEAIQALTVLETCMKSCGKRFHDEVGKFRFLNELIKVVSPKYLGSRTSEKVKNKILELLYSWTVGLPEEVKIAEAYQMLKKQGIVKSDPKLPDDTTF

NEDD4 WW2 = NEDD4 WW2 (Homo sapiens, UniProt P46934); experiment: FP saturation binding, NEDD4 WW2; conditions: GST-tagged construct, domain titrated to 10 nM FITC-peptide, 50 mM sodium phosphate pH 7.4, 0.05% Tween, quadratic fit, technical triplets, read-out: KD [µM] + SE
Chain of NEDD4 WW2 (P46934 765-803 limits assumed): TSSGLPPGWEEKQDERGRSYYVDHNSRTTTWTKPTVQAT
Protocol: In order to calculate the FP signal in millipolarisation (mP), the FITC-labelled peptides were excited at 485 nm and the emitted light was measured at 535 nm in two different angles. For saturation experiments, a dilution series of the respective protein domains was generated (25 µL) and 10 nM fluorescein isothiocyanate (FITC)-labelled peptide (diluted in 50 mM sodium phosphate buffer pH 7.4, 0.05% Tween) were added in an end volume of 50 µL. A control experiment titrating GST was performed for the binding of the NEDD4 WW2 domain, since the GST-tagged construct was used for affinity measurements. For fitting the data, the buffer-corrected reduced values were plotted in GraphPad PRISM against the respective protein concentration and the KD-values were obtained by fitting against the quadratic equation (Gianni et al, [2005]).

MAP1LC3B ATG8 [4] = target: T4, MAP1LC3B ATG8 (Homo sapiens, UniProt Q9GZQ8); experiment: GenVar_HD2 ProP-PD phage selection, MAP1LC3B ATG8; conditions: bait MAP1LC3B ATG8; from NGS counts of overlapping wild-type/mutant library peptide pairs; positive = mutation enhances, negative = disrupts binding
Protocol: (§1) Phage display screens were performed according to previous reports (Benz et al, [2022]; Ali et al, [2020]) and for four consecutive selection rounds with five to six replicates per bait protein domain against the […] library.
(§2) On the first day, both bait (15 µg in 100 µL PBS) and control protein domains (GST and MBP; 10 µg in 100 µL PBS) were immobilised on a 96-well MaxiSorb plate (Nunc) overnight in the cold room while shaking. Additionally, a 10 mL culture of Omnimax E. coli bacteria supplemented with 10 µg/mL tetracycline was incubated overnight at 37 °C at 200 rpm.
(§3) First, protein solutions were removed from both control and bait protein domain plates and the wells were blocked with 0.5% BSA in PBS (200 µL/well) for 1 h in the cold room while shaking. After that, three Omnimax E. coli cultures were started supplemented with either 30 µg/mL kanamycin, 100 µg/mL carbenicillin and 10 µg/mL tetracycline and incubated at 37 °C and 200 rpm. The two first cultures served as a means to check for helper phage contamination (kanamycin) and phages with library phagemid contamination (carbenicillin) of the culture used for elution of the phages during selections. The tetracycline Omnimax E. coli culture was grown until OD at 600 nm reached 0.6–0.8.
Naïve phage libraries were precipitated (10 µL/well of bait protein domain) by diluting the library tenfold with PBS, adding one-fourth of 20% […] and 400 mM NaCl and incubating the mixture for 15 min on ice. Subsequently, phages were spun down for 15 min at 13,000 × g and resuspended in 0.5% BSA and 0.05% Tween-20 in PBS (100 µL/well). Control domain plates were washed four times with 200 µL 0.05% Tween-20 in PBS, 100 µL of the naïve phage library (10^11 phages/mL) were added to every well and the plates incubated for 1 h in the cold room while shaking. Next, protein bait domain plates were washed four times with 0.05% Tween-20 in PBS and the phage solution from the control protein plate was transferred to the respective wells on the protein bait domain plate. […]

GABARAPL1 ATG8 [5] = target: T2, GABARAPL1 ATG8; experiment: GenVar_HD2 ProP-PD phage selection, GABARAPL1 ATG8; conditions: bait GABARAPL1 ATG8; from NGS counts of overlapping wild-type/mutant library peptide pairs; positive = mutation enhances, negative = disrupts binding
Protocol: as §1, §2
as §3, with “0.6–0.8. […]” for “0.6–0.8.”

GABARAPL1 ATG8 [6] = target: T2, GABARAPL1 ATG8; experiment: FP displacement assay, GABARAPL1 ATG8; format: binding; conditions: read-out: KD-values [µM] + SEM
Protocol: (§4) FP experiments were performed, as previously described (Kliche et al, [2021], [2023]), on an iD5 plate reader (Molecular devices) using black half-area non-binding 96-well plates (Corning). In order to calculate the FP signal in millipolarisation (mP), the FITC-labelled peptides were excited at 485 nm and the emitted light was measured at 535 nm in two different angles. For saturation experiments, a dilution series of the respective protein domains was generated (25 µL) and 10 nM fluorescein isothiocyanate (FITC)-labelled peptide (diluted in 50 mM sodium phosphate buffer pH 7.4, 0.05% Tween) were added in an end volume of 50 µL. […] For fitting the data, the buffer-corrected reduced values were plotted in GraphPad PRISM against the respective protein concentration and the KD-values were obtained by fitting against the quadratic equation (Gianni et al, [2005]).
(§5) The buffer-corrected reduced values were subsequently plotted against the logarithmic unlabelled peptide concentration to derive the IC50 values by using the sigmoidal dose-response (x is logarithmic) fit in GraphPad PRISM and calculate the KD values as described previously (Nikolovska-Coleska et al, [2004]).

MAP1LC3B ATG8 [7] = target: T4, MAP1LC3B ATG8; experiment: FP displacement assay, MAP1LC3B ATG8; format: binding
Protocol: FP experiments were performed, as previously described (Kliche et al, [2021], [2023]), on an iD5 plate reader (Molecular devices) using black half-area non-binding 96-well plates (Corning). In order to calculate the FP signal in millipolarisation (mP), the FITC-labelled peptides were excited at 485 nm and the emitted light was measured at 535 nm in two different angles. For saturation experiments, a dilution series of the respective protein domains was generated (25 µL) and 10 nM fluorescein isothiocyanate (FITC)-labelled peptide (diluted in 50 mM sodium phosphate buffer pH 7.4, 0.05% Tween) were added in an end volume of 50 µL. A control experiment titrating GST was performed for the binding of the NEDD4 WW2 domain, since the GST-tagged construct was used for affinity measurements. For fitting the data, the buffer-corrected reduced values were plotted in GraphPad PRISM against the respective protein concentration and the KD-values were obtained by fitting against the quadratic equation (Gianni et al, [2005]).
as §5

G3BP2 NTF2 [8] = target: T5, G3BP2 NTF2 (Homo sapiens, UniProt Q9UN86); experiment: FP displacement assay, G3BP2 NTF2; conditions: FP displacement of FITC-N_SARS-CoV-2 (10 nM) complexed with domain (1-2x KD), 50 mM sodium phosphate pH 7.4, KD from IC50, technical triplets, n.b. = not binding within concentration range used
T5 sequence (Q9UN86 1-139): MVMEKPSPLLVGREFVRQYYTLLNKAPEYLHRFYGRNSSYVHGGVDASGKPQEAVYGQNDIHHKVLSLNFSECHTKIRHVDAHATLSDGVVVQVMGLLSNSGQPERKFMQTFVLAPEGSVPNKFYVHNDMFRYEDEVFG

CLTC NTD = target: T6, CLTC NTD (Homo sapiens, UniProt Q00610); experiment: GenVar_HD2 ProP-PD phage selection, CLTC NTD; conditions: bait CLTC NTD; from NGS counts of overlapping wild-type/mutant library peptide pairs; positive = mutation enhances, negative = disrupts binding
T6 sequence (Q00610 1-364): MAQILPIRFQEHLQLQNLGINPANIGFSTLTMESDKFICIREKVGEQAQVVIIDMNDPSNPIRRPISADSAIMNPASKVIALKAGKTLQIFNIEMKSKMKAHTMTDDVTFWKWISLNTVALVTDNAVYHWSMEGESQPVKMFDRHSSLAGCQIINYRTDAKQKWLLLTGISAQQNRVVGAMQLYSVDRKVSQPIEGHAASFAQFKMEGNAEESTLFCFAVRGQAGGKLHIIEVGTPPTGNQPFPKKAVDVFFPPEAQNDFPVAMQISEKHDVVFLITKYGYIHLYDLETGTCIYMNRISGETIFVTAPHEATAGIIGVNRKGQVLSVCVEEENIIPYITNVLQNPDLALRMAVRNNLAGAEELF
Protocol: as §1, §2
as §3, with “0.6–0.8. […]” for “0.6–0.8.”

G3BP2 NTF2 [9] = target: T5, G3BP2 NTF2; experiment: GenVar_HD2 ProP-PD phage selection, G3BP2 NTF2; conditions: bait G3BP2 NTF2; from NGS counts of overlapping wild-type/mutant library peptide pairs; positive = mutation enhances, negative = disrupts binding
Protocol: as §1, §2
as §3, with “0.6–0.8. […]” for “0.6–0.8.”

MAP1LC3A ATG8 [10] = target: T7, MAP1LC3A ATG8 (Homo sapiens, UniProt Q9H492); experiment: FP displacement assay, MAP1LC3A ATG8; format: binding; conditions: read-out: KD-values [µM] + SEM
Protocol: as §4, §5

MAP1LC3A ATG8 [11] = target: T7, MAP1LC3A ATG8; experiment: GenVar_HD2 ProP-PD phage selection, MAP1LC3A ATG8; conditions: bait MAP1LC3A ATG8; from NGS counts of overlapping wild-type/mutant library peptide pairs; positive = mutation enhances, negative = disrupts binding
Protocol: as §1, §2
as §3, with “0.6–0.8. […]” for “0.6–0.8.”

USP7 MATH/TRAF [12] = target: T1, USP7 MATH/TRAF; experiment: GenVar_HD2 ProP-PD phage selection, USP7 MATH/TRAF; conditions: bait USP7 MATH/TRAF; from NGS counts of overlapping wild-type/mutant library peptide pairs; positive = mutation enhances, negative = disrupts binding
Protocol: as §1, §2
as §3, with “0.6–0.8. […]” for “0.6–0.8.”

USP7 MATH/TRAF [13] = target: T1, USP7 MATH/TRAF; experiment: FP displacement assay, USP7 MATH/TRAF; format: binding; conditions: read-out: KD-values [µM] + SEM
Protocol: as §4, §5

GGA1 VHS [14] = target: T3, GGA1 VHS; experiment: GenVar_HD2 ProP-PD phage selection, GGA1 VHS; conditions: bait GGA1 VHS; from NGS counts of overlapping wild-type/mutant library peptide pairs; positive = mutation enhances, negative = disrupts binding
Protocol: as §1, §2
as §3, with “0.6–0.8. […]” for “0.6–0.8.”

G3BP1 NTF2 = G3BP1 NTF2 (Homo sapiens, UniProt Q13283); conditions: FP displacement of FITC-N_SARS-CoV-2 (10 nM) complexed with domain (1-2x KD), 50 mM sodium phosphate pH 7.4, KD from IC50, technical triplets, n.b. = not binding within concentration range used
Chain of G3BP1 NTF2 (Q13283 1-139): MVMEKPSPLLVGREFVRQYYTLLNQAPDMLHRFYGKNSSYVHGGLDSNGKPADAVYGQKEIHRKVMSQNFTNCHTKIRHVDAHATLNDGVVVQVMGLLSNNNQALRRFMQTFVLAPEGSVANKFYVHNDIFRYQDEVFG

Chain of ABL1 SH3 (P00519 60-121): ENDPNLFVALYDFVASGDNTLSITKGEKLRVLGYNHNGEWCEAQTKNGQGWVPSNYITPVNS

Compound: CC(C)[C@H](NC(=O)[C@@H]1CCCN1C(=O)[C@@H]1CCCN1C(=O)[C@@H]1CCCN1C(=O)[C@@H]1CCCN1C(=O)[C@H](Cc1ccc(O)cc1)NC(=O)[C@H](C)NC(=O)[C@@H]1CCCN1C(=O)[C@@H]1CCCN1C(=O)[C@H](Cc1c[nH]cn1)NC(=S)Nc1ccc2c(c1)C(=O)OC21c2ccc(O)cc2Oc2cc(O)ccc21)C(=O)N1CCC[C@H]1C(=O)N[C@H](C(N)=O)[C@@H](C)O [FITC-3BP2] ({FITC}-HPPAYPPPPVPT-NH2)
- Kd (ABL1 SH3): 3.7 ± 0.4 µM

Compound: CC[C@H](C)[C@H](NC(=O)[C@H](CO)NC(=O)[C@H](CO)NC(=O)[C@H](CO)NC(=O)[C@@H](NC(=O)[C@H](CO)NC(=O)[C@@H]1CCCN1C(=O)[C@H](CCC(N)=O)NC(=O)[C@H](CO)NC(=O)[C@H](Cc1ccc(O)cc1)NC(=O)[C@H](CC(=O)O)NC(=S)Nc1ccc2c(c1)C(=O)OC21c2ccc(O)cc2Oc2cc(O)ccc21)[C@@H](C)O)C(=O)N[C@H](C(=O)N[C@@H](Cc1ccc(O)cc1)C(=O)O)[C@@H](C)CC [FITC-MDM2] ({FITC}-DYSQPSTSSSIIY-OH)
- Kd (USP7 MATH/TRAF [1]): 0.5 ± 0.03 µM

Compound: CC(C)C[C@H](NC(=O)[C@H](Cc1c[nH]cn1)NC(=O)[C@@H](NC(=O)[C@H](Cc1c[nH]c2ccccc12)NC(=O)[C@H](CC(=O)O)NC(=O)[C@H](CC(=O)O)NC(=O)[C@H](CC(=O)O)NC(=S)Nc1ccc2c(c1)C(=O)OC21c2ccc(O)cc2Oc2cc(O)ccc21)[C@@H](C)O)C(=O)N[C@@H](CO)C(=O)N[C@@H](CO)C(=O)N[C@@H](CCCCN)C(N)=O [FITC-SQSTM1]
- Kd (GABARAPL1 ATG8 [2]): 3.7 ± 0.4 µM

Compound: CC[C@H](C)[C@H](NC(=O)[C@H](CC(=O)O)NC(=O)[C@H](CC(C)C)NC(=O)[C@H](CC(C)C)NC(=O)[C@H](CC(=O)O)NC(=O)[C@H](CCC(=O)O)NC(=O)[C@H](CC(=O)O)NC(=O)[C@H](CCC(=O)O)NC(=O)[C@H](CC(=O)O)NC(=S)Nc1ccc2c(c1)C(=O)OC21c2ccc(O)cc2Oc2cc(O)ccc21)C(=O)N[C@@H](CCC(=O)O)C(=O)N[C@@H](CC(=O)O)C(N)=O [FITC-STK11_mut] ({FITC}-DEDEDLLDIED-NH2)
- Kd (GGA1 VHS [3]): 14.1 ± 0.7 µM

Compound: C[C@H](NC(=O)[C@H](CO)NC(=O)[C@H](Cc1ccc(O)cc1)NC(=O)[C@@H]1CCCN1C(=O)[C@@H]1CCCN1C(=O)[C@@H]1CCCN1C(=O)[C@H](CO)NC(=O)[C@H](CC(=O)O)NC(=O)[C@@H](NC(=S)Nc1ccc2c(c1)C(=O)OC21c2ccc(O)cc2Oc2cc(O)ccc21)[C@@H](C)O)C(=O)NCC(=O)O [FITC-UL56(HHV-2)] ({FITC}-TDSPPPYSAG-OH)
- Kd (NEDD4 WW2): 4.1 ± 0.3 µM

Compound: Ac-DKDEWQFLDQNEDAFE-NH2 [BUB1_486-501 S492F]
- Mutation enrichment score (MAP1LC3B ATG8 [4]): 12
- Mutation enrichment score (GABARAPL1 ATG8 [5]): 16
- Kd (GABARAPL1 ATG8 [6]): < 0.3 µM
- increase in affinity, mutant vs wild-type peptide (MAP1LC3B ATG8 [7]; from FP displacement KD values, MAP1LC3B ATG8): four-fold increase in affinity
- Kd (MAP1LC3B ATG8 [7]; read-out: KD-values [µM] + SEM): 1.6 ± 0.1 µM

Compound: Ac-DLLTCGQAQMNFPY-NH2 [BCL11A_44-56 wild-type]
- KD-values [µM] + SEM (G3BP2 NTF2 [8]): n.b.

Compound: Ac-DLLTFGQAQMNFPY-NH2 [BCL11A_44-56 C48F]
- Mutation enrichment score (CLTC NTD): 12
- Mutation enrichment score (G3BP2 NTF2 [9]): 10

Compound: Ac-QTKWELLQQVDTSTRT-NH2 [KRT1_209-224 wild-type]
- Kd (MAP1LC3A ATG8 [10]): 55 ± 5 µM

Compound: Ac-QTKWEPLQQVDTSTRT-NH2 [KRT1_209-224 L214P]
- Mutation enrichment score (MAP1LC3A ATG8 [11]): −6

Compound: Ac-YISSSSTSTMPNSSKSS-NH2 [CHK2_38-53 Q51K]
- Mutation enrichment score (USP7 MATH/TRAF [12]): −6
- Kd (USP7 MATH/TRAF [13]): 4.7 ± 0.3 µM

Compound: Ac-YQQELDHLLVDLDHQR-NH2 [MYH9_1419-1433 D1424H]
- Mutation enrichment score (GGA1 VHS [14]): −10

Compound: H3COC-QQSYLD(S/F)GIHSGATTT-NH2 [CTNNB1_27-42 wild-type]
- KD-values [µM] + SEM (G3BP1 NTF2): no binding and n.b.

Reference: PMC11369174, “Proteome-scale characterisation of motif-based interactome rewiring by disease mutations” (Molecular Systems Biology, 2024)
